Experimental findings from patent US20080207695A1, “Thrombin Inhibiting 2-Oxo-1,2,5,6-Tetrahydropyridine Derivatives” (ASTRAZENECA AB, priority 2005, published 2008) are described below.

The nature of data set [1]: Test F: in vitro (liver microsome) stability, human liver microsomes. The data set is classed as in vitro ADME. To be noted: liver microsomes from humans, NADPH, 37° C. As to the method:
(§1) Determination of In Vitro (Liver Microsome) Stability
(§2) Liver microsomes are prepared from Sprague-Dawley rats and human liver samples according to internal SOPs. The compounds are incubated at 37° C. at a total microsome protein concentration of 0.5 mg/mL in a 0.1 mol/L potassium phosphate buffer at pH 7.4, in the presence of the cofactor, NADPH (1.0 mmol/L). The initial concentration of compound is 1.0 μmol/L. Samples are taken for analysis at 5 time points, 0, 7, 15, 20 and 30 minutes after the start of the incubation. The enzymatic activity in the collected sample is immediately stopped by adding an equal volume of acetonitrile containing 0.8% formic acid. The concentration of compound remaining in each of the collected samples is determined by means of LC-MS/MS. The elimination rate constant (k) of the thrombin inhibitor is calculated as the slope of the plot of ln[Thrombin inhibitor] against incubation time (minutes). The elimination rate constant is then used to calculate the half-life (T1/2) of the thrombin inhibitor, which is subsequently used to calculate the intrinsic clearance (CLint) of the thrombin inhibitor in liver microsomes as: […]

The nature of data set [2]: Test F: in vitro (liver microsome) stability, rat liver microsomes. The data set is classed as in vitro ADME, Sprague-Dawley rats. To be noted: liver microsomes from rats, NADPH, 37° C. The procedure:
as §1, §2

`CC1=C(CC(=O)NCc2c(C)cc(N)nc2COC(=O)c2ccccc2)C(=O)N(NCC(F)(F)c2ccccn2)CC1` [Example 3, (6-Amino-3-{[({1-[(2,2-difluoro-2-pyridin-2-ylethyl)amino]-4-methyl-2-oxo-1,2,5,6-tetrahydropyridin-3-yl}acetyl)amino]methyl}-4-methylpyridin-2-yl)-methyl benzoate]: the “conversion to the corresponding active inhibitor (title compound of Example 1)” value in data set [1] and in data set [2] was “converted to the corresponding active inhibitor” throughout.

As for `CC(=O)OCc1nc(N)cc(C)c1CNC(=O)CC1=C(C)CCN(NCC(F)(F)c2ccccn2)C1=O` [Example 2, (6-Amino-3-{[({1-[(2,2-difluoro-2-pyridin-2-ylethyl)amino]-4-methyl-2-oxo-1,2,5,6-tetrahydropyridin-3-yl}acetyl)amino]methyl}-4-methylpyridin-2-yl)-methyl acetate], the “conversion to the corresponding active inhibitor (title compound of Example 1)” value in data set [1] and in data set [2] was “converted to the corresponding active inhibitor” each time.
